{"source": "patent US20150223457A1", "about": "“METHOD OF COMBATTING SOYBEAN SUDDEN DEATH SYNDROME USING SUBSTITUTED PYRAZOLAMIDES” (Syngenta Participations AG, priority 2012, published 2015)", "key": {"Fusarium virguliforme [1]": {"tested_on": "Fusarium virguliforme", "assay": "Seed treatment efficacy against soybean sudden death syndrome (inoculated seeds in rolled paper towels)", "assay_type": "in vivo", "details": "fungicide rate 2.5 mg a.i./100 kg seed; soybean cultivar S36-B6, isolate 10-118, hypocotyls and roots, 19 days at 18° C., mean of 3 replications", "description": "A study was conducted to determine the efficacy of the compound No. 1.001 against F. virguliforme the causal agent of the sudden death syndrome on soybeans. Soybean seeds of the cultivar S36-B6 were treated with the compound No. […] […] Ten soybean seeds were placed on a paper towel (Scotts paper towels, 25.4 cm×33.02 cm in size) that has been previously moistened with 40 milliliters of water. Seeds were inculated with 100 microliters of a F. virguliforme conidial suspension adjusted to 100,000 conidia per milliliter of water. The isolate with the identification number 10-118 of F. virguliforme was used used in this study since it is sensitive to fludioxonil. Inoculated seeds seeds were then covered with another paper towel. Starting at one end, the paper towels with seeds were rolled loosely in a cylinder-fashion. The rolled paper towels with the inoculated seeds were placed into a zipped plastic bag. Bags were labelled with the fungicide treatment and dated. Bags with seeds were then placed in a growth room at a temperature of 18° C. and 12 h photoperiod for 19 days. The study was conducted using a completely randomized design with 3 replications. Disease severity was conducted on the hypocotyls and roots and measured as percentage."}, "Fusarium virguliforme [2]": {"tested_on": "Fusarium virguliforme", "assay": "Sensitivity of F. virguliforme isolates: mycelial growth inhibition on amended potato dextrose agar plates", "assay_type": "cell-based", "details": "for ED50 (effective dose for 50% of the fungal growth inhibition): potato dextrose agar, 20° C., 9 days", "description": "The sensitivity of 4 F. virguliforme isolates to the compound No. 1.001 was determined by comparing the mycelial growth inhibition of on potato dextrose agar plates amended or not with the compound No. 1.001. The compound No. 1.001 was tested at the following concentrations: 0, 0.001, 0.01, 0.1, 1 and 10 mg.ai./L. The fungicide fludioxonil (commercial formulation Maxim 4 FS) was included in the sensitivity study. The plates were incubated at 20° C. for 9 days. The sensitivity test was set in a completely randomized design with 2 replications for each concentration of fungicide tested. Data obtained for each isolate was transformed using an arcsine transformation. The effective dose for 50% of the fungal growth inhibition (ED50 values) was calculated by regressing the transformed growth inhibition data against the log of the fungicide concentration."}}}
{"molecule": "N#Cc1c[nH]cc1-c1cccc2c1OC(F)(F)O2", "note": "[Fludioxonil, fludioxonil]", "values": [{"measurement": "% disease severity", "setting": "Fusarium virguliforme [1]", "value": 20.9, "unit": "%"}, {"measurement": "ED50 (effective dose for 50% of the fungal growth inhibition)", "setting": "Fusarium virguliforme [2]; isolate 10-118", "value": 0.206, "unit": "mg ai/L"}, {"measurement": "ED50 (effective dose for 50% of the fungal growth inhibition)", "setting": "Fusarium virguliforme [2]; isolate 10-119", "value": ">10", "unit": "mg ai/L"}, {"measurement": "ED50 (effective dose for 50% of the fungal growth inhibition)", "setting": "Fusarium virguliforme [2]; isolate 10-120", "value": ">10", "unit": "mg ai/L"}, {"measurement": "ED50 (effective dose for 50% of the fungal growth inhibition)", "setting": "Fusarium virguliforme [2]; isolate 10-230", "value": ">10", "unit": "mg ai/L"}, {"measurement": "sensitivity of isolate to the fungicide (in words)", "setting": "Fusarium virguliforme [2]; one isolate of 4", "value": "sensitive"}, {"measurement": "dose response of isolates to the fungicide (in words)", "setting": "Fusarium virguliforme [2]; the other 3 isolates of 4", "value": "not a dose response"}]}
